Entries after “also recorded” stand apart in the source; their conditions may differ.
Columns and labels:
in vitro = conditions: bovine, serum
[1] = bovine
mushroom tyrosinase = format: biochemical; conditions: for oxidation rate (Rmax) by tyrosinase: pH 7.4

| SMILES | % decomposition over time, 1 hr [1] | % decomposition over time, 2 hrs [1] | % decomposition over time, 3 hrs [1] | quality as tyrosinase substrate / oxidation rate in words (mushroom tyrosinase) | other results |
| --- | --- | --- | --- | --- | --- |
| O=C(NCCc1ccc(O)cc1)Oc1ccc(N(CCCl)CCCl)cc1 [1.1.1] | 7% | 44% | 61% | – | half-life (in vitro): ~2.5 h; % decomposition over time, 4 hrs [1]: 74%; % decomposition over time, 6 hrs [1]: 100% |
| COc1cccc2c1C(=O)c1c(O)c3c(c(O)c1C2=O)C[C@@](O)(C(C)=O)C[C@@H]3OC1CC(NC(=O)NCCc2ccc(O)cc2)C(O)C(C)O1 (stereo partly drawn) [1.1.5] | 0% | 0% | 0% | poor substrate | % decomposition over time, 4 hrs [1]: 0%; % decomposition over time, 6 hrs [1]: 0%; % decomposition over time, 12 hrs [1]: 0%; % decomposition over time, 24 hrs [1]: 0%; % decomposition over time, 48 hrs [1]: 0% |
| COC(=O)[C@H](Cc1ccc(O)cc1)NC(=S)Oc1ccc(N(CCCl)CCCl)cc1 [2.2.1] | 52% | 92% | 100% | – | half-life (in vitro): ~1.5 h |
| O=C(NCCc1ccc(O)cc1)Oc1ccc(N(CCCl)CCCl)cc1 [prodrug 9, {2′-(4″-Hydroxyphenyl)ethyl} carbamic acid p-(bis-2-chloroethylamino)phenyl ster] | – | – | – | good substrates | – |
| O=C(NCCc1ccc(O)c(O)c1)Oc1ccc(N(CCCl)CCCl)cc1 [prodrug 10, {2′-(3″,4″-Dihydroxyphenyl)-ethyl} carbamic acid p-(bis-2-chloroethylamino) phenyl ester] | – | – | – | good substrates | – |
| COC(=O)[C@@H](Cc1ccc(O)c(O)c1)NC(=O)Oc1ccc(N(CCCl)CCCl)cc1 [prodrug 16, (R)-[1′-Amino-2′-(3,4′-hydroxyphenyl)ethanonic acid methyl ester]-carbamic acid p-(bis-2-chloroethylamino) phenyl ester] | – | – | – | – | oxidation by tyrosinase within incubation period (mushroom tyrosinase): not oxidized by tryorinase; also recorded: not oxidised by tyrosinase |
| O=C(NCCc1ccc(O)cc1)Oc1ccc(N(CCCl)CCCl)cc1 [prodrug 21, {2′-(4″-Hydroxyphenyl)ethylamine) carbamic acid p-(bis-2-chloroethylamino) phenyl ester] | – | – | – | – | oxidation rate (Rmax) by tyrosinase (mushroom tyrosinase): 7.5 nmol/min |
| O=C(NCCSc1ccc(O)cc1)Oc1ccc(N(CCCl)CCCl)cc1 [prodrug 22] | – | – | – | – | oxidation rate (Rmax) by tyrosinase (mushroom tyrosinase): 7.5 nmol/min |

— patent publication US7183319B2 (priority 2000, dated 2007)
